Test results reported in patent US20090137527A1, “Compositions and methods for modulating immune function” (Resolvyx Pharmaceuticals, Inc., priority 2007, published 2009).
Like-named read-outs stand apart in the source and are kept apart here.

How the values were obtained:
[1] = system: CD3-stimulated mouse splenocytes; assay: Ex vivo anti-CD3 stimulated cytokine production of mouse spleen cells after in vivo dosing; conditions: for inhibition at 0.03 mg/kg: Mus musculus, Splenocyte, iv, single i.v. 0.03 mg/kg, 30 min before harvest, vs vehicle
Experimental: BALB/c female mice (n=5), 6-8 weeks old, were given either i.v. injection of Compound X or vehicle once a day for 5 days or a single i.v. injection of Compound X or vehicle. Thirty minutes after the last injection, spleens were removed under sterile conditions, and a single cell suspension was made by pressing through a nylon strainer (BD Falcon Cat# 352340). Cells were spun at 1500 rpm for 10 minutes, and the liquid was aspirated. RBC was lysed by adding 3 mL of ACK solution (Lonza Cat# 10-458E) for 5 minutes. The tube was filled with RPMI media and spun. Cells were resuspended in RPMI/10% FCS. To plates pre-coated with anti-CD3 (per the procedure described below) were added 4×10^5 cells per well. Supernatants were harvested after 18 hours of culture. Cytokine levels were measured by Bioplex (Biorad), according to manufacturer's instructions.
For CD3 stimulation, anti-mouse CD3 mAb (BD Pharmingen clone 145-2C11) was used at 0.2 μg/mL in PBS to coat flat bottom 96-well plate at 4° C. overnight. Plates were rinsed twice with PBS before use.
To measure this effect, mice were given daily i.v. injections of 0.3 mg/kg of Compound X for five days. Spleen cells were then harvested and stimulated with anti-CD3 antibody in vitro overnight.
Mice were given a single i.v. injection of 0.03 mg/kg Compound X 30 minutes before spleen cells were harvested. T cells were isolated by magnetic beads, and the purity of T cells was >95% as measured by flow cytometry. Spleen cells or purified T cells were stimulated with 0.2 μg/mL anti-CD3 overnight, and cytokine levels were measured by Bioplex.
The ability of in vivo treatment with Compound X to inhibit anti-CD3 stimulated cytokine production was measured by treating mice (n=5) with a single i.v. injection of 0.03 mg/kg of Compound X thirty minutes before spleens were harvested. Spleen cells were stimulated with anti-CD3 mAb overnight, and cytokine levels were measured by Bioplex. The resulting percent inhibition of cytokine production by total spleen cells as compared with vehicle treated animals is shown in Table 2. These studies indicate that Compound X, when dosed to naïve animals, inhibited ex vivo CD3-stimulated cytokine production in splenocytes by approximately 35-60%.

[2] = system: mice with established Type II collagen arthritis; assay: Male DBA/1J mouse established Type II collagen arthritis; type: in vivo
Experimental: Male DBA/1J mice (7-9 weeks old on arrival; at least 7 weeks old at time of first immunization) were housed 5 per cage and were acclimated for enough days after arrival such that all animals were at least 7 weeks old at start of study.
Mice were anesthetized with Isoflurane and given intradermal collagen (2 mg/ml) injections at the base of the tail in a volume of 150 μl (D0 and D21). On days 21-35, onset of arthritis occurred and mice were randomized into treatment groups. Randomization into each group was done after swelling was obviously established in at least one paw, and attempts were made to assure approximately equal mean scores across the groups at time of enrollment. Treatment was initiated after enrollment and continued every day for a total of 10 days as outlined in Table 3. During the ten days of treatment, clinical scores were given for each of the paws (right front, left front, right rear, and left rear) according to the scoring methods provided below. […]
• 0 Normal • 1 Minimal—small areas of resorption, not readily apparent on low magnification, rare osteoclasts in affected joints • 2 Mild—more numerous areas of resorption, not readily apparent on low magnification, osteoclasts more numerous in affected joints • 3 Moderate—obvious resorption of medullary trabecular and cortical bone without full thickness defects in cortex, loss of some medullary trabeculae, lesion apparent on low magnification, osteoclasts more numerous in affected joints • 4 Marked—Full thickness defects in cortical bone, often with distortion of profile of remaining cortical surface, marked loss of medullary bone, numerous osteoclasts, affects most joints • Severe—Full thickness defects in cortical bone and destruction of joint architecture of all joints
Histologic parameters (mean±SE) for each group were analyzed for differences using the Chi Square Test and one way ANOVA. […]

Structure (SMILES): CC[C@@H](O)/C=C/C=C\C[C@@H](O)/C=C/C=C/C=C\[C@@H](O)CCCC(=O)O [Compound X]
- inhibition at 0.03 mg/kg ([1]; anti-CD3 overnight, read-out: % Inhibition of IL-6 production by total spleen cells): 55.2%
- inhibition at 0.03 mg/kg ([1]; anti-CD3 overnight, read-out: % Inhibition of IL-13 production by total spleen cells): 68.3%
- inhibition at 0.03 mg/kg ([1]; anti-CD3 overnight, read-out: % Inhibition of INFγ production by total spleen cells): 78.5%
- inhibition at 0.03 mg/kg ([1]; anti-CD3 overnight, read-out: % Inhibition of Il-2 production by total spleen cells): 62.6%
- inhibition at 0.03 mg/kg ([1]; anti-CD3 overnight, read-out: % Inhibition of Il-4 production by total spleen cells): 64.9%
- inhibition at 0.03 mg/kg ([1]; anti-CD3 overnight, read-out: % Inhibition of MIP1α production by total spleen cells): 42.7%
- inhibition at 0.03 mg/kg ([1]; anti-CD3 overnight, read-out: % Inhibition of MIP1β production by total spleen cells): 46.1%
- inhibition at 0.03 mg/kg ([1]; anti-CD3 overnight, read-out: % Inhibition of RANTES production by total spleen cells): 37.2%
- inhibition at 0.03 mg/kg ([1]; anti-CD3 overnight, read-out: % Inhibition of TNFα production by total spleen cells): 50.7%
- cytokine release of CD3-stimulated mouse splenocytes ([1]; daily i.v. 0.3 mg/kg for five days, anti-CD3 overnight): inhibits
- inhibition of ex vivo CD3-stimulated cytokine production in splenocytes ([1]; dosed to naïve animals, summary of studies): 35-60%
- CD3-induced cytokine release, spleen cells or purified T cells ([1]; single i.v. 0.03 mg/kg 30 minutes before harvest, 0.2 μg/mL anti-CD3 overnight): reduction
- clinical symptoms of arthritis (clinical scoring in the paws) ([2]; once daily i.v. at both 0.5 and 5.0 μg/kg, vs arthritic control): inhibited
- pannus formation and bone loss (histologic scoring) ([2]; once daily i.v. at both 0.5 and 5.0 μg/kg, vs vehicle control): reduced
- score of bone damage (histologic scoring in joints) ([2]; twice daily 5 μg/kg i.v., vs vehicle control): significant decrease
